# Results as given in patent US20230270721A1, “INHIBITION OF BAX-MEDIATED CELL DEATH BY ELTROMBOPAG” (Albert Einstein College of Medicine, priority 2020, published 2023).
# Like-named read-outs stand apart in the source and are kept apart here.
# Tests used:
# BAX R134E = biological target: T1, BAX R134E (Homo sapiens, UniProt Q07812, R134E); test: Liposomal permeabilization assay, trigger site mutant R134E; assay type: biochemical; conditions: 250 nM BAX and 5 nM tBID
# T1 construct: Human full-length (1-192) wild-type BAX (Q07812); made in house; host or cells: E. coli BL21 (DE3) CodonPlus (DE3)-RIPL
# Method: Lipids (Avanti Polar Lipids) at the following ratio, phosphatidylcholine 48%, phosphatidylinositol 10%, dioleoyl phosphatidylserine 10%, phosphatidylethanolamine, 28%, and tetraoleoyl cardiolipin 4%, were mixed in a total of 1 mg, dried and resuspended in 10 mM HEPES, pH 7, 200 mM KCI, and 5 mM MgCl2 with 12.5 mM 8-aminonaphthalene-1,3,6-trisulfonic acid (ANTS) dye and 45 mM p-xylene-bis-pyridinium bromide (DPX) quencher (Molecular Probes) using a water bath sonicator. Liposomes were formed by extrusion of the suspension using Avanti Mini-Extruder (Cat # 610000) with polycarbonate membranes of 0.1 µm pore size (Avanti Polar Lipids). […] ANTS/DPX release was quantified based on the increase in fluorescence intensity that occurs when the ANTS fluorophore is separated from the DPX quencher upon release from the liposomes into solution. Fluorescence (λex = 355 nm and λem = 520 nm) was measured at 1 minute intervals at room temperature (22-25° C.) indicated using a Tecan Infinite M1000 plate reader. In the case of heat activation, reactions were set up as described in the absence of tBID or BIM, and experiments were recorded at 42° C. The percentage release of ANTS/DPX at any given time point was calculated as percentage release=((F-F0)/(F100-F0))(100), where F0 and F100 are baseline and maximal fluorescence, respectively. […]
# BAX = biological target: T2, BAX (Homo sapiens, UniProt Q07812); test: Liposomal translocation assay with NBD-labeled BAX; assay type: biochemical; conditions: for IC50: NBD-labeled BAX 800 nM, 120 minutes
# T2 construct: Human full-length (1-192) wild-type BAX (Q07812); made in house; host or cells: E. coli BL21 (DE3) CodonPlus (DE3)-RIPL
# Method: Lipids (Avanti Polar Lipids) at the following ratio, phosphatidylcholine 48%, phosphatidylinositol 10%, dioleoyl phosphatidylserine 10%, phosphatidylethanolamine, 28%, and tetraoleoyl cardiolipin 4%, were mixed in a total of 1 mg, dried and resuspended in 10 mM HEPES, pH 7, 200 mM KCl, and 5 mM MgCl2. The resulting slurry was vortexed for 10 minutes and sonicated in a sonicating water bath for 10 minutes. Liposomes were formed by extrusion of the suspension using Avanti Mini-Extruder with polycarbonate membranes of 0.1 µm pore size (Avanti Polar Lipids) followed by passage through a CL2B Sepharose column (GE Healthcare). Recombinant wild type BAX was labeled at cysteine by overnight incubation at 4° C. with 10 equivalents of iodoamino-NBD (IANBD, Thermo Fisher) and 3 equivalents of TCEP to maintain reduced cysteine. Labeled BAX (BAX-NBD) was separated from unreacted IANBD by gel filtration (Econo-Pac 10 DG desalting column, BioRad) and used immediately. […] Upon BAX-NBD translocation, the NBD fluorophore was excluded from bulk water through contact with the liposomal membrane leading to an increase in fluorescence intensity. Fluorescence (λex = 475 nm and λem = 530 nm) was measured at 1-minute intervals at 37° C. indicated using a Tecan Infinite M1000 plate reader. The percentage translocation at any given time point was calculated as percentage translocation=[((F-F0)/(F100-F0))(100)]-[((FS-FS0)/(FS100-FS0))(100)] where F0 and F100 are baseline and maximal fluorescence, respectively and FS, FS0, and FS100 are the current fluorescence, baseline fluorescence, maximal fluorescence of solution BAX incubated in the absence of liposomes. The subtraction of the percent translocation of solution BAX is required to correct for NBD fluorescence bleaching that occurs throughout the reaction. […]
# Prior to permeabilizing membranes, activated BAX must first translocate to the membrane (Lovell, J. F. et al. Cell 135, 1074-1084, (2008)). To explore this earlier step in BAX activation, an NBD-fluorescence-based translocation assay was used. […]
# T2 sequence (Q07812 whole entry): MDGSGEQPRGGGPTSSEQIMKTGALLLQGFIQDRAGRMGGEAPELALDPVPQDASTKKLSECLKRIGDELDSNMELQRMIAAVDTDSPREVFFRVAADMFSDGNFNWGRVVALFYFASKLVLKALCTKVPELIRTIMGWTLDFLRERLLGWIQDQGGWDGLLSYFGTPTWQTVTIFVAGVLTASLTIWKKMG
# T1 sequence (Q07812 whole entry R134E): as the sequence (Q07812 whole entry) above, with R134E counted along it
smiles,measurement,setting,value
"CC1=NN(c2ccc(C)c(C)c2)C(=O)/C1=N\Nc1cccc(-c2cccc(C(=O)O)c2)c1O [EO, eltrombopag]",inhibition of liposomal release versus BAX WT,BAX R134E,slight trend towards weaker inhibition
same,IC50,"BAX; BIM BH3 1 µM, read-out: BIM IC50, inhibition of BAX translocation",5.7 µM
same,IC50,"BAX; tBID 200 nM, read-out: tBID IC50, inhibition of BAX translocation",6.3 µM
same,heat-induced auto-translocation of BAX,"BAX; heat-induced, no BH3 activator",capable of inhibiting heat-induced auto-translocation of BAX
